Drawing on ChEMBL document CHEMBL1141127, “Investigation of the binding determinants of phosphopeptides targeted to the SRC homology 2 domain of the signal transducer and activator of transcription 3. Development of a high-affinity peptide inhibitor” (J Med Chem, 2005), this text covers IC50 for five compounds.

One may read the IC50 as the concentration at which inhibition is half-maximal.

Square brackets hold non-standard residues; d marks the D form. Peptide text beside a SMILES is read from it. pY = N[C@@H](Cc1ccc(OP(=O)(O)O)cc1)C(=O)O; Dip = N[C@H](C(=O)O)C(c1ccccc1)c1ccccc1; NMeL = CN[C@@H](CC(C)C)C(=O)O

Assay [1] concerns the target T1, Signal transducer and activator of transcription 3 (Homo sapiens, UniProt P40763). The assay can be described thus: Inhibitory concentration against signal transducer and activator of transcription 3 (stat3) using 5-carboxyfluoresceinyl-Ala-Tyr(PO3H2)-Leu-Pro-Gln-Thr-Val-NH2 by FP assay.
In assay [2] the target is T1, Signal transducer and activator of transcription 3. The assay can be described thus: Inhibitory concentration against signal transducer and activator of transcription 3 (stat3) by (EMSA) electrophoretic mobility shift assay.

T1 sequence (P40763 whole entry): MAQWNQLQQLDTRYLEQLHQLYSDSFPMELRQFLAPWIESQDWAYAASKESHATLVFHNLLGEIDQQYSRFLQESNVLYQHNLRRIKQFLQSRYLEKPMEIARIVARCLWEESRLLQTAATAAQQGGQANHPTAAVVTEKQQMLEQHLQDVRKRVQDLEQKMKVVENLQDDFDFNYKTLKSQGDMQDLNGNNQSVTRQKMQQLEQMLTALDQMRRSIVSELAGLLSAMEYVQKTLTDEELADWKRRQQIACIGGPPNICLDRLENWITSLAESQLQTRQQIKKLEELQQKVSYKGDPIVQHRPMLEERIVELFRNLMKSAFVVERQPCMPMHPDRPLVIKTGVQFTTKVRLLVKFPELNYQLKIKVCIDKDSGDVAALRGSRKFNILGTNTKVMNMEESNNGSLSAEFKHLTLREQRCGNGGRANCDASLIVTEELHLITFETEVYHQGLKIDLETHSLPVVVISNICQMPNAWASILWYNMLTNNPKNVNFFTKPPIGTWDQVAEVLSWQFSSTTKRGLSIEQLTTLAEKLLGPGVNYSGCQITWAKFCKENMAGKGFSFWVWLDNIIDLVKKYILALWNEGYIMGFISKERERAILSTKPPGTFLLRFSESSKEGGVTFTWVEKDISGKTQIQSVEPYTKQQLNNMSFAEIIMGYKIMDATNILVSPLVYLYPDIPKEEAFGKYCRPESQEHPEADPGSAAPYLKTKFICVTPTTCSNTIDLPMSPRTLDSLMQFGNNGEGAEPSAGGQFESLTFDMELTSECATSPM

`CC(=O)N[C@@H](Cc1ccc(OP(=O)(O)O)cc1)C(=O)N[C@@H](CC(C)C)C(=O)N1CCC[C@@H]1C(=O)N[C@@H](CCC(N)=O)C(=O)N[C@H](C(N)=O)[C@@H](C)O`: the IC50 in assay [1] is > 100000 nM. `CC(=O)N[C@@H](Cc1ccc(OP(=O)(O)O)cc1)C(=O)N[C@@H](CC(C)C)C(=O)N1CCC[C@H]1C(=O)N[C@@H](CCC(N)=O)C(=O)N[C@H](C(N)=O)[C@@H](C)O`: the IC50 in assay [2] turned out to be 600 nM.

Consider `CC(=O)N[C@@H](Cc1ccc(OP(=O)(O)O)cc1)C(=O)N[C@@H](CC(C)C)C(=O)N1CCC[C@H]1C(=O)N[C@@H](CCC(N)=O)C(N)=O` (Ac-[pY]LPQ-NH2), for which the IC50 in assay [2] is 1000 nM. On to `CC(=O)N[C@@H](Cc1ccc(OP(=O)(O)O)cc1)C(=O)N[C@H](C(=O)N1CCC[C@H]1C(=O)N[C@@H](CCC(N)=O)C(=O)N[C@H](C(N)=O)[C@@H](C)O)C(c1ccccc1)c1ccccc1` (Ac-[pY][Dip]PQT-NH2), for which the IC50 in assay [1] was > 100000 nM. Same read-out and setting: next, `CC(=O)N[C@@H](Cc1ccc(OP(=O)(O)O)cc1)C(=O)N(C)[C@@H](CC(C)C)C(=O)N1CCC[C@H]1C(=O)N[C@@H](CCC(N)=O)C(=O)N[C@H](C(N)=O)[C@@H](C)O` (Ac-[pY][NMeL]PQT-NH2): > 100000 nM.
